Assay results from patent US20230278995A1, “1,3,4-OXADIAZOLE DERIVATIVE COMPOUNDS AS HISTONE DEACETYLASE 6 INHIBITOR, AND THE PHARMACEUTICAL COMPOSITION COMPRISING THE SAME” (CHONG KUN DANG PHARMACEUTICAL CORP., priority 2020, published 2023).

How the values were obtained:
human recombinant HDAC6 = molecular target: T1, human recombinant HDAC6 (Homo sapiens, UniProt Q9UBN7); test: HDAC enzyme activity inhibition assay (HDAC Fluorimetric Drug Discovery Kit), HDAC6; format: biochemical; details: for HDAC6 selectivity (fold): HDAC1 vs HDAC6; for IC50: human recombinant HDAC6, same protocol as HDAC1
T1 construct: purchased Calbiochem Inc. 382180
T1 sequence (Q9UBN7 1-1215): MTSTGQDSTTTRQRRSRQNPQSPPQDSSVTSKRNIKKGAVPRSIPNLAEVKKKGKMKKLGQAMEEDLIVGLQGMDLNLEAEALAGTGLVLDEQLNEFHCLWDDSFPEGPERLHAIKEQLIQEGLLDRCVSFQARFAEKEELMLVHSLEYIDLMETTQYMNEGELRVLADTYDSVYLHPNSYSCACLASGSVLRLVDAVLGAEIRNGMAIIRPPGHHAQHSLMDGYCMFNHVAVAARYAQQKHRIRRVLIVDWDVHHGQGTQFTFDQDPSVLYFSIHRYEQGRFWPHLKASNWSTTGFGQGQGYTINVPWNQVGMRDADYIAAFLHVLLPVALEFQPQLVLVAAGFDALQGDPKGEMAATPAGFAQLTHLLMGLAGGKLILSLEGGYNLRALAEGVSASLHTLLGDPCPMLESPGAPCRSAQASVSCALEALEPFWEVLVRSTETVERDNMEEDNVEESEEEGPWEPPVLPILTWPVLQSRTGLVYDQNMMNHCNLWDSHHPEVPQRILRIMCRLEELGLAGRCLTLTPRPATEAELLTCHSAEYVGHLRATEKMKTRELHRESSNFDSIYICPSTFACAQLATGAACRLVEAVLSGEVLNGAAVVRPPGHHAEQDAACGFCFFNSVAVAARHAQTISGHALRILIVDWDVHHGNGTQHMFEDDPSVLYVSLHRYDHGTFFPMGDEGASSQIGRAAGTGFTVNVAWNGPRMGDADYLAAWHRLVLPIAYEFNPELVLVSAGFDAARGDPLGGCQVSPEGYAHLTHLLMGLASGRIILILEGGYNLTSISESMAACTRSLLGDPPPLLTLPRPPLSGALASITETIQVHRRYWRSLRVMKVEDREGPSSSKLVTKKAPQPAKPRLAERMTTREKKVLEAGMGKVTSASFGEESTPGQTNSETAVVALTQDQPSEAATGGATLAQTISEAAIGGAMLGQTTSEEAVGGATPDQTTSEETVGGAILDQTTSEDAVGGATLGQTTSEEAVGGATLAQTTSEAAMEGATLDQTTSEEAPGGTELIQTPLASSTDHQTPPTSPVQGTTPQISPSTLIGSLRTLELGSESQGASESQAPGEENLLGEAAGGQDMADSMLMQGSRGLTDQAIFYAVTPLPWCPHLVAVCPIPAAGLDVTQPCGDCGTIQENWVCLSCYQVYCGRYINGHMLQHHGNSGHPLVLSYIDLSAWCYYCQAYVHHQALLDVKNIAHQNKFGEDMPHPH
Procedure, shortened: (§1)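 The preceding reaction ran 60 min at 30 °C with 0.3 μg recombinant human enzyme, HDAC1 or HDAC6 under an identical protocol, and 10 μM Fluor de Lys-SIRT1 substrate, across 5-fold diluted compound.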

human recombinant HDAC1 = molecular target: T2, human recombinant HDAC1 (Homo sapiens, UniProt Q13547); test: HDAC enzyme activity inhibition assay (HDAC Fluorimetric Drug Discovery Kit), HDAC1; format: biochemical; details: human recombinant HDAC1, Fluor de Lys-SIRT1 substrate, 30° C. 60 minutes
T2 construct: purchased Enzo Life Sciences, Inc. BML-SE456
Procedure, shortened: as §1

T2 sequence (Q13547 whole entry): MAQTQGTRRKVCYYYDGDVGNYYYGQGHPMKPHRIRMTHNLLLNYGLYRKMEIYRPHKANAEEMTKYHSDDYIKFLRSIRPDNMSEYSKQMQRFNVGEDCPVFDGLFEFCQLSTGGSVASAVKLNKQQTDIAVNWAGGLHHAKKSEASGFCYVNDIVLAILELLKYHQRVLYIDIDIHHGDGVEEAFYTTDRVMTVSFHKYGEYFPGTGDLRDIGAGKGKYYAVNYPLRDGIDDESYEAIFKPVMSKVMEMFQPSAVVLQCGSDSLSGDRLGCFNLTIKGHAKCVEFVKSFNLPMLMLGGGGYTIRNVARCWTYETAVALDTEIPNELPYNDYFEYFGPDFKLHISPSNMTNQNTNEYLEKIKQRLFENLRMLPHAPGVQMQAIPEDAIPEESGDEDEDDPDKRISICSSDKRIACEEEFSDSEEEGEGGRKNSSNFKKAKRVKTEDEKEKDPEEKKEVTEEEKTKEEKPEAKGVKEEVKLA

Row | HDAC6 selectivity (fold) (human recombinant HDAC6) | IC50 (human recombinant HDAC6) [µM] | IC50 (human recombinant HDAC1) [µM] | SMILES
1 | 1,497 fold | 0.0334 | > 50 | O=C(N(Cc1ccc(-c2nnc(C(F)F)o2)cn1)c1cccc(F)c1)C1(F)CN(C2CCN(C3CCCCC3)CC2)C1 [Compound 3409, 1-(1-cyclohexylpiperidin-4-yl)-N-((5-(5-(difluoromethyl)-1,3,4-oxadiazol-2-yl)pyridin-2-yl)methyl)-3-fluoro-N-(3-fluorophenyl)azetidine-3-carboxamide]
2 | 1,506 fold | 0.0332 | > 50 | CCCC(=O)N1CC(F)(C(=O)N(Cc2ccc(-c3nnc(C(F)F)o3)cn2)c2ccccc2)C1 [Compound 3154, 1-butyryl-N-((5-(5-(difluoromethyl)-1,3,4-oxadiazol-2-yl)pyridin-2-yl)methyl)-3-fluoro-N-phenylazetidine-3-carboxamide]
3 | 1,000 fold | 0.05 | > 50 | CCN1CC(F)(C(=O)N(Cc2ccc(-c3nnc(C(F)F)o3)cn2)c2ccccc2)C1 [Compound 3001, N-((5-(5-(difluoromethyl)-1,3,4-oxadiazol-2-yl)pyridin-2-yl)methyl)-1-ethyl-3-fluoro-N-phenylazetidine-3-carboxamide]
